Measured values published in patent US20220127337A1 (priority 2020, published 2022).

Tests used:
[1] = tested on: CoV-2 ORF3a-mediated activation of caspase 1; type: cell-based, human
[2] = tested on: SARS-CoV; settings: Lu W et al. Proc Natl Acad Sci USA 103, 12540-12545 (2006); cited from earlier work

[Ba+2] [barium]
CoV-2 ORF3a-mediated activation of caspase 1 [1]: able to curb CoV-2 ORF3a-mediated activation of caspase 1
release of SARS-CoV virions [2]: block the release of SARS-CoV virions
